Measured values as given in the OPERA property sets (Mansouri et al. 2018).

Conditions: not given

Which boiling point does the source give for `CCCNCCO` here?
Its boiling point is 183 °C.

For `CC(C)(C)CC(C)(C)C`, which boiling point is on record?
Its boiling point is 122 °C.

What about the log10 vapour pressure (mmHg) of the same compound?
The log10 vapour pressure (mmHg) was 1.3.

What about the melting point of the same compound?
The melting point was -66.5 °C.

Which boiling point does the source give for `O=C(Cl)c1cccc(Cl)c1` here?
Its boiling point is 225 °C.

And the log10 vapour pressure (mmHg)?
Its log10 vapour pressure (mmHg) is -0.854.

Which melting point does the source give for `CCC(O)C(CC(C)N(C)C)(c1ccccc1)c1ccccc1` (configuration not stated) here?
The melting point was 127 °C.

Which melting point does the source give for `CCCCCCCCCCCCCCCCOCC(O)CO` (configuration not stated) here?
Its melting point is 64 °C.

For `COc1ccc(Cn2cncn2)cc1`, which melting point is on record?
Its melting point is 41.5 °C.

For `O=CCCCl`, which boiling point is on record?
Its boiling point is 130 °C.

Which melting point does the source give for `Nc1cc(F)c(F)c(F)c1F` here?
The melting point was 28 °C.

What does the source list for `O=CCc1ccccc1`?
boiling point: 195 °C; log10 vapour pressure (mmHg): -0.407; melting point: 33.5 °C

Which boiling point does the source give for `c1ccc2[nH]ncc2c1` here?
The boiling point was 269 °C.

And the melting point?
Its melting point is 148 °C.

Which log10 vapour pressure (mmHg) does the source give for `COP(=O)(OC)O/C(=C\Cl)c1ccc(Cl)cc1Cl` here?
Its log10 vapour pressure (mmHg) is -5.01.

What about the melting point of the same compound?
Its melting point is 69.5 °C.

For `Cc1ccc(C(=O)Cl)cc1`, which boiling point is on record?
The boiling point was 226 °C.

And the melting point?
The melting point was -3 °C.

What does the source list for `CC`?
boiling point: -88.6 °C; log10 Koa: 0.42; log10 vapour pressure (mmHg): 4.5; melting point: -183 °C

For `C=C(CC(=O)O)C(=O)O`, which melting point is on record?
Its melting point is 175 °C.

And the ready biodegradability?
Its ready biodegradability is “readily biodegradable”.

Which results are given for `CCCCCCCCCCCCCCCc1ccccc1`?
boiling point: 373 °C; log10 vapour pressure (mmHg): -5.14; melting point: 22 °C

Which results are given for `CCCCCCCCCCCCCCCCCC1CCCCC1`?
boiling point: 397 °C; melting point: 38 °C

With `FC(F)(F)C(F)(F)C(F)(F)C(F)(F)F` as the compound, how does the boiling point read?
Its boiling point is -1.9 °C.

And the log10 vapour pressure (mmHg)?
Its log10 vapour pressure (mmHg) is 3.3.

What about the melting point of the same compound?
Its melting point is -128 °C.

With `O=C(O)C=Cc1cccc(Br)c1` as the compound, how does the melting point read?
Its melting point is 178 °C.

What does the source list for `OCC1CCC(CO)CC1` (configuration not stated)?
boiling point: 285 °C; log10 vapour pressure (mmHg): -3.51; melting point: 51 °C

With `CCOCCc1ccc(OCCN=c2[nH]cnc(CC)c2Cl)c(C)c1C` as the compound, how does the melting point read?
The melting point was 70 °C.

With `c1ccc2ncncc2c1` as the compound, how does the boiling point read?
Its boiling point is 241 °C.

And the melting point?
The melting point was 48 °C.

Which boiling point does the source give for `CCCCCCOc1ccccc1` here?
The boiling point was 240 °C.

And the melting point?
Its melting point is -19 °C.

Which results are given for `CC(=O)NCc1ccccc1`?
melting point: 61 °C; ready biodegradability: readily biodegradable

Which boiling point does the source give for `COc1ccc(CO)cc1` here?
Its boiling point is 259 °C.

And the melting point?
The melting point was 25 °C.

Which melting point does the source give for `N#Cc1ccc(O)cc1` here?
The melting point was 112 °C.

What about the ready biodegradability of the same compound?
The ready biodegradability was “not readily biodegradable”.

With `NNC(=O)c1ccc(O)cc1` as the compound, how does the melting point read?
The melting point was 265 °C.

For `Cc1ccc(C(C)C)c(O)c1C(=O)O`, which melting point is on record?
Its melting point is 127 °C.

What does the source list for `CCOP(=S)(OCC)Oc1cc(C)nc(N(CC)CC)n1`?
log10 Koc (L/kg): 2.48; log10 vapour pressure (mmHg): -3.54; melting point: 15 °C

Which melting point does the source give for `COc1ccc2c(c1)CC[C@@H]1[C@@H]2CC[C@]2(C)C(=O)[C@H](Cl)C[C@@H]12` here?
The melting point was 180 °C.

Which melting point does the source give for `CCC(C)C1(CC)C(=O)NC(=S)NC1=O` (configuration not stated) here?
The melting point was 169 °C.

Which results are given for `COC1CC1`?
boiling point: 44.7 °C; melting point: -119 °C

With `CC1=Nc2ccc(Cl)cc2S(=O)(=O)N1` as the compound, how does the melting point read?
The melting point was 330 °C.

With `COc1cc(C(=O)c2ccc(Cl)cc2)cc(OC)c1OCCN1CCOCC1` as the compound, how does the melting point read?
The melting point was 91.5 °C.

For `COC(C)(C)CCOC(C)=O`, which ready biodegradability is on record?
Its ready biodegradability is “readily biodegradable”.

With `C=CC(OC)OC` as the compound, how does the boiling point read?
The boiling point was 88 °C.

Which melting point does the source give for `CN(C)c1cccc2c(S(=O)(=O)Cl)cccc12` here?
The melting point was 70 °C.

For `Clc1cc(Cl)c(-c2ccccc2)c(Cl)c1`, which log10 vapour pressure (mmHg) is on record?
The log10 vapour pressure (mmHg) was -3.15.

Which ready biodegradability does the source give for `C=C(C)C(=O)OCCOCCOC(=O)C(=C)C` here?
The ready biodegradability was “readily biodegradable”.

Which log10 vapour pressure (mmHg) does the source give for `CC(=O)C(C)CO` (configuration not stated) here?
The log10 vapour pressure (mmHg) was -0.646.

For `COc1ccc(O)c(C(C)(C)C)c1`, which ready biodegradability is on record?
The ready biodegradability was “not readily biodegradable”.

With `CN(C)CCN(Cc1cccs1)c1ccccn1` as the compound, how does the log10 Koc (L/kg) read?
The log10 Koc (L/kg) was 2.87.

Which boiling point does the source give for `C=C(C)C1CC=C(C)CC1` (configuration not stated) here?
Its boiling point is 176 °C.

And the log10 vapour pressure (mmHg)?
The log10 vapour pressure (mmHg) was 0.215.

What about the melting point of the same compound?
Its melting point is -86.4 °C.

What about the ready biodegradability of the same compound?
Its ready biodegradability is “readily biodegradable”.

Which boiling point does the source give for `OCc1cccc(I)c1` here?
Its boiling point is 252 °C.

Which melting point does the source give for `O=C(c1ccc(F)cc1)C1CCN(CCn2c(=O)[nH]c3ccccc3c2=O)CC1` here?
The melting point was 231 °C.

Which melting point does the source give for `O=C(NCO)c1cccnc1` here?
The melting point was 142 °C.

With `Oc1ccc2cc(Cl)ccc2c1` as the compound, how does the melting point read?
The melting point was 116 °C.

With `Nc1ccc(Oc2ccccc2)cc1` as the compound, how does the melting point read?
The melting point was 83 °C.

With `CCCCCCBr` as the compound, how does the boiling point read?
Its boiling point is 155 °C.

And the log10 vapour pressure (mmHg)?
The log10 vapour pressure (mmHg) was 0.591.

What about the melting point of the same compound?
The melting point was -84.7 °C.

With `ClC1=C(Cl)C2(Cl)C3CCC4C(CCC3C1(Cl)C2(Cl)Cl)C1(Cl)C(Cl)=C(Cl)C4(Cl)C1(Cl)Cl` (configuration not stated) as the compound, how does the ready biodegradability read?
The ready biodegradability was “not readily biodegradable”.

For `Cc1cc(C)nc(C)c1`, which boiling point is on record?
Its boiling point is 171 °C.

And the log10 vapour pressure (mmHg)?
Its log10 vapour pressure (mmHg) is 0.298.

What about the melting point of the same compound?
The melting point was -46 °C.

For `CCOc1ccc([N+](=O)[O-])cc1N`, which melting point is on record?
Its melting point is 96.5 °C.

Which melting point does the source give for `O=C(O)CSCC(=O)O` here?
The melting point was 129 °C.

For `CCCCCCCCCCCCCCCCCCCCCCCCC`, which boiling point is on record?
The boiling point was 402 °C.

What about the log10 biodegradation half-life (days) of the same compound?
The log10 biodegradation half-life (days) was 2.08.

And the log10 vapour pressure (mmHg)?
The log10 vapour pressure (mmHg) was -5.82.

And the melting point?
The melting point was 54 °C.

And the ready biodegradability?
Its ready biodegradability is “readily biodegradable”.

With `CCCCCCCCCCCC(=O)Oc1ccccc1` as the compound, how does the melting point read?
The melting point was 24.5 °C.

What does the source list for `CCCCCCCCCCCCCCCCCCN=C=O`?
boiling point: 300 °C; melting point: 20 °C; ready biodegradability: not readily biodegradable

For `CC(C)(N)Cc1ccccc1Cl`, which ready biodegradability is on record?
Its ready biodegradability is “not readily biodegradable”.

For `Cc1ccc2ccc3cccc4ccc1c2c34`, which log10 biodegradation half-life (days) is on record?
Its log10 biodegradation half-life (days) is 1.96.

Same assay, conditions: fish

Which log10 BCF does the source give for `O=[N+]([O-])c1ccc(Cl)cc1` here?
The log10 BCF was 1.3.

And the log10 biotransformation half-life (days)?
The log10 biotransformation half-life (days) was -0.48.

Which log10 BCF does the source give for `CCN(CC)c1ccc2c(-c3ccccc3C(=O)O)c3ccc(N(CC)CC)cc3[o+]c2c1` here?
The log10 BCF was 0.23.

What does the source list for `CN(C)C(=O)Nc1ccc(Cl)c(Cl)c1`?
log10 BCF: 1.15; log10 biotransformation half-life (days): -1.45

With `Nc1cccc2cccc(N)c12` as the compound, how does the log10 BCF read?
The log10 BCF was 0.8.

What about the log10 biotransformation half-life (days) of the same compound?
The log10 biotransformation half-life (days) was -0.73.

For `FC(Cl)(Cl)C(F)(Cl)Cl`, which log10 BCF is on record?
Its log10 BCF is 1.77.

Which log10 BCF does the source give for `Cc1cccc([N+](=O)[O-])c1` here?
The log10 BCF was 1.08.

And the log10 biotransformation half-life (days)?
Its log10 biotransformation half-life (days) is -0.79.

For `O=[N+]([O-])c1cccc(Cl)c1`, which log10 BCF is on record?
Its log10 BCF is 1.89.

Which log10 BCF does the source give for `OCC(CO)(CO)CO` here?
Its log10 BCF is 0.1.

Which log10 BCF does the source give for `Brc1cc(Br)c(Oc2cc(Br)c(Br)cc2Br)cc1Br` here?
The log10 BCF was 6.13.

With `N#Cc1ccc(O)cc1` as the compound, how does the log10 BCF read?
Its log10 BCF is 0.91.

Which log10 biotransformation half-life (days) does the source give for `Cc1ccc2ccc3cccc4ccc1c2c34` here?
Its log10 biotransformation half-life (days) is 0.11.
